According to US20220081389A1, “AMIDE COMPOUNDS AND PREPARATION METHOD THEREFOR AND USE THEREOF” (CAC NANTONG CHEMICAL CO., LTD., priority 2019, published 2022):
Where two headings read alike, the source gives them in different places. Values belong to the compound of their own block, whether it stands above or below them.

What was measured:
Spodoptera frugiperda = experiment: Insecticidal activity test against Spodoptera frugiperda (leaf dip, maize seedlings); assay type: in vivo; settings: for mortality at 0.1 ppm / mortality at 1 ppm: Spodoptera frugiperda, foliar; for mortality at 1 ppm: read-out: insecticidal activity (mortality of Spodoptera frugiperda); for Mortality (%) against Spodoptera frugiperda, 1 d / Mortality (%) against Spodoptera frugiperda, 2 d / Mortality (%) against Spodoptera frugiperda, 3 d: 0.1 ppm, leaf dip, 3rd-instar larvae; for Mortality (%) against Spodoptera frugiperda, 1 d: 1st day after treatment; for Mortality (%) against Spodoptera frugiperda, 2 d: 2nd day after treatment; for Mortality (%) against Spodoptera frugiperda, 3 d: 3rd day after treatment
Procedure: (§1) Various kinds of pests were tested with the compounds of this invention. Unless otherwise specified, the preparation method of samples and definition of the mortality rate of the insects in the embodiments and this invention are as follows: the preparation method of samples is to weigh 10 mg of the compound and dissolve it in 1 mL DMF to prepare 10,000 ppm mother liquid, which is diluted to necessary concentration by 0.05% Tween-80 water, respectively. The mortality rate is the mortality rate of pests under the test concentration, whose calculating formula is: mortality rate (%)=Number of dead pests/total pests*100
(§2) The leaf dip method was used to assay the insecticidal activity. Cut above ground part of fresh maize seedlings (about 10 cm). Dip the maize seedlings into the solution prepared with compound of this invention for 10 seconds and dry them in a cool environment. Then cut the dry maize seedlings into 3-5 cm leaf sections and put 3 leaf sections into each petri dish. Put ten of 3th-instar larvae of Spodoptera frugiperda into each dish, which was repeated by 3 times. Then the dishes were placed in an illumination incubator and incubated with 14 hL: 10 hD illumination at 25° C. Symptoms were investigated on the 1st, 2nd and 3rd day after treatment, and the mortality was calculated.

Mythimna separata = experiment: Insecticidal activity test against Mythimna separata (leaf dip, maize seedlings); assay type: in vivo; settings: foliar; for mortality at 0.04 ppm: 3rd day after treatment, read-out: insecticidal activity (mortality of Mythimna separate)
Procedure: as §1
as §2, with “Mythimna separatas” for “Spodoptera frugiperda”

Spodoptera litura = experiment: Insecticidal activity test against Spodoptera litura (leaf dip, cabbage leaf discs); assay type: in vivo; settings: foliar; for mortality at 0.4 ppm: 3rd day after treatment; for mortality at 0.04 ppm / mortality at 0.1 ppm: 72 h, 3 d
Procedure: as §1
The leaf dip method was used to assay the insecticidal activity. Healthy and pesticide-untreated cabbage leaves was selected to prepare 1 cm of leaf discs by diameter. Dip the leaf discs into the solution prepared with compound of this invention for 10 seconds and dry them in a cool […] environment. Then place them in 24-well plate with 3 discs per pore. Put 10 of Spodoptera litura into each pore, which was repeated by 3 times. The 24-well plate was placed in an illumination incubator and incubated with 14 hL: 10 hD illumination at 25° C. The dead number of Spodoptera litura was investigated on the 3rd day after treatment, and the mortality was calculated.

Chilo suppressalis = experiment: Insecticidal activity test against Chilo suppressalis (rice stem dip); assay type: in vivo
Procedure: as §1
The rice was cultivated in a plastic pot with a diameter of 9 cm and a height of 10 cm. When the rice grew to 25 cm, the aerial part of robust and consistent rice seedlings was selectively cut. Their leaves were removed and their stems of about 8 cm were kept for use. Pour the solution prepared with compound of this invention into the Petri dish (about 40 mL) and dip the rice stems into the solution for 10 seconds. Take rice stems out and dry them in a cool environment. Put a wet cotton ball at the bottom of finger-like glass tube and 5 rice stems in each tube. Put 10 of 3rd-instar larvae of Chilo suppressa into each tube, which was repeated by 3 times. Seal the tubes with black cotton cloth and tighten them with rubber band. The tubes were placed in a illumination incubator at 28° C. and incubated in the dark (incubated without light). The dead number of Chilo suppressalis was investigated 3 days after treatment. The mortality was calculated.

Aphis craccivora = experiment: Insecticidal activity test against Aphis craccivora (broad bean leaf dip); assay type: in vivo
Procedure: as §1
Cut a single leaf of broad bean with stem and insert it into a glass jar filled with water (capacity of 20 ml). Five adult Aphis craccivoras were seeded onto each leaf, and covered with plastic cups with holes. The adult aphids were removed after 24 hours. Before the experiment, the base number was investigated and the single leaf with more than 15 nymphs aphids was selected for the experiment. Dip leaf of broad bean with nymphs aphids into the solution of test compound 10s, take out and dry them in a cool environment, 3 parallel repeats. Place the glass jars on the shelf of observation room and covered with plastic cups with holes. 20-25° C. with 14 hL: 10 hD illumination. The number of Aphis craccivora death and alive was investigated on the 3rd day after treatment, and the mortality was calculated.

[1] = 24 h, read-out: Mortality (%) against Spodoptera frugiperda, 1 d
[2] = 48 h, read-out: Mortality (%) against Spodoptera frugiperda, 2 d
[3] = 72 h, read-out: Mortality (%) against Spodoptera frugiperda, 3 d
[4] = 3rd day after treatment, read-out: insecticidal activity (mortality of Chilo suppressalis)
[5] = 72 h, 3 d, read-out: Mortality (%, 3 d) 1 ppm
[6] = 72 h, 3 d, read-out: Mortality (%, 3 d) 2 ppm
[7] = 24 h, 1 d, read-out: Mortality (%) 1 d
[8] = 48 h, 2 d, read-out: Mortality (%) 2 d
[9] = 72 h, 3 d, read-out: Mortality (%) 3 d
[10] = Aphis craccivora, foliar, 40 ppm, 3rd day after treatment, read-out: insecticidal activity (mortality of Aphis craccivora)

Structure (SMILES): CCN(C(=O)c1ccncc1)c1cccc(C(=O)Nc2c(Br)cc(C(F)(C(F)(F)F)C(F)(F)F)cc2OC(F)F)c1F [KC2, reference compound]
mortality at 0.1 ppm (Spodoptera frugiperda; [1]): 0% | mortality at 0.1 ppm (Spodoptera frugiperda; [2]): 8.33% | mortality at 0.1 ppm (Spodoptera frugiperda; [3]): 20.8%

Structure (SMILES): O=C(Nc1c(Br)cc(C(F)(C(F)(F)F)C(F)(F)F)cc1OC(F)F)c1cccc(N(CC2CC2)C(=O)c2ccccc2)c1F [Compound 1, N-(2-bromo-4-(perfluoropropan-2-yl)-6-(difluoromethoxy)phenyl)-3-(N-(cyclopropylmethyl)benzamido)-2-fluorobenzamide]
mortality at 0.04 ppm (Mythimna separata): ≥ 90% | mortality at 0.4 ppm (Spodoptera litura): ≥ 90% | mortality at 1 ppm (Chilo suppressalis; [4]): ≥ 90% | mortality at 0.5 ppm (Chilo suppressalis; 72 h, 3 d): 76.7% | mortality at 1 ppm (Chilo suppressalis; [5]): 96.7% | mortality at 2 ppm (Chilo suppressalis; [6]): 100% | mortality at 1 ppm (Spodoptera frugiperda): ≥ 90%

Structure (SMILES): O=C(Nc1c(Br)cc(C(F)(C(F)(F)F)C(F)(F)F)cc1C(F)(F)F)c1cccc(N(CC2CC2)C(=O)c2ccc(F)nc2)c1F [Compound 106, N-(3-((2-bromo-4-(perfluoropropan-2-yl)-6-(trifluoromethyl)phenyl)carbamoyl)-2-fluorophenyl)-N-(cyclopropylmethyl)-6-fluoronicotinamide]
mortality at 0.04 ppm (Mythimna separata): ≥ 90% | mortality at 0.4 ppm (Spodoptera litura): ≥ 90% | mortality at 1 ppm (Chilo suppressalis; [4]): ≥ 90% | mortality at 0.1 ppm (Spodoptera frugiperda; [1]): 41.7% | mortality at 0.1 ppm (Spodoptera frugiperda; [2]): 62.5% | mortality at 0.1 ppm (Spodoptera frugiperda; [3]): 95.8% | mortality at 1 ppm (Spodoptera frugiperda): ≥ 90%

Structure (SMILES): O=C(Nc1c(Br)cc(C(F)(C(F)(F)F)C(F)(F)F)cc1OC(F)F)c1cccc(N(CC2CC2)C(=O)c2ccnc(F)c2)c1F [Compound 120]
Mortality (%) against Spodoptera frugiperda, 1 d (Spodoptera frugiperda): 58.33% | Mortality (%) against Spodoptera frugiperda, 2 d (Spodoptera frugiperda): 100% | Mortality (%) against Spodoptera frugiperda, 3 d (Spodoptera frugiperda): 100%

Structure (SMILES): O=C(Nc1c(Br)cc(C(F)(C(F)(F)F)C(F)(F)F)cc1C(F)(F)F)c1cccc(N(CC2CC2)C(=O)c2ccncc2)c1F [Compound 101]
Mortality (%, 3 d) 1 ppm (Aphis craccivora; 1 ppm, 3 d): 39.11% | Mortality (%, 3 d) 10 ppm (Aphis craccivora; 10 ppm, 3 d): 83.26% | Mortality (%, 3 d) 40 ppm (Aphis craccivora; 40 ppm, 3 d): 100.00%

Structure (SMILES): N#Cc1ccc(C(=O)N(CC2CC2)c2cccc(C(=O)Nc3c(Br)cc(C(F)(C(F)(F)F)C(F)(F)F)cc3OC(F)F)c2F)cc1 [Compound 14]
Mortality (%) against Spodoptera frugiperda, 1 d (Spodoptera frugiperda): 29.17% | Mortality (%) against Spodoptera frugiperda, 2 d (Spodoptera frugiperda): 79.17% | Mortality (%) against Spodoptera frugiperda, 3 d (Spodoptera frugiperda): 95.83%

Structure (SMILES): CCN(C(=O)c1ccc(F)cc1)c1cccc(C(=O)Nc2c(Br)cc(C(F)(C(F)(F)F)C(F)(F)F)cc2OC(F)F)c1F [KC1, reference compound]
mortality at 0.01 ppm (Mythimna separata; [7]): 6.67% | mortality at 0.01 ppm (Mythimna separata; [8]): 16.7% | mortality at 0.01 ppm (Mythimna separata; [9]): 20%

Structure (SMILES): O=C(Nc1c(Br)cc(C(F)(C(F)(F)F)C(F)(F)F)cc1OC(F)F)c1cccc(N(CC2CC2)C(=O)c2ccnc(Cl)c2)c1F [Compound 119]
Mortality (%) against Spodoptera frugiperda, 1 d (Spodoptera frugiperda): 54.17% | Mortality (%) against Spodoptera frugiperda, 2 d (Spodoptera frugiperda): 79.17% | Mortality (%) against Spodoptera frugiperda, 3 d (Spodoptera frugiperda): 91.67%

Structure (SMILES): O=C(Nc1c(Br)cc(C(F)(C(F)(F)F)C(F)(F)F)cc1OC(F)F)c1cccc(N(CC2CC2)C(=O)c2ccc(Cl)cc2)c1F [Compound 44]
Mortality (%) against Spodoptera frugiperda, 1 d (Spodoptera frugiperda): 37.50% | Mortality (%) against Spodoptera frugiperda, 2 d (Spodoptera frugiperda): 62.50% | Mortality (%) against Spodoptera frugiperda, 3 d (Spodoptera frugiperda): 91.67%

Structure (SMILES): O=C(Nc1c(Br)cc(C(F)(C(F)(F)F)C(F)(F)F)cc1OC(F)(F)F)c1cccc(N(CC2CC2)C(=O)c2ccccc2)c1F [KC3, reference compound]
mortality at 0.5 ppm (Chilo suppressalis; 72 h, 3 d): 20% | mortality at 1 ppm (Chilo suppressalis; [5]): 80% | mortality at 2 ppm (Chilo suppressalis; [6]): 96.7% | mortality at 0.1 ppm (Spodoptera frugiperda; [1]): 0% | mortality at 0.1 ppm (Spodoptera frugiperda; [2]): 0% | mortality at 0.1 ppm (Spodoptera frugiperda; [3]): 4.17%

Structure (SMILES): O=C(Nc1c(Br)cc(C(F)(C(F)(F)F)C(F)(F)F)cc1C(F)(F)F)c1cccc(N(CC2CC2)C(=O)c2ccc(F)cc2)c1F [KC4, reference compound]
mortality at 0.04 ppm (Spodoptera litura): 8.83% | mortality at 0.1 ppm (Spodoptera litura): 75% | mortality at 1 ppm (Aphis craccivora; Aphis craccivora, foliar, 72 h, 1 ppm, 3 d): 0% | mortality at 10 ppm (Aphis craccivora; Aphis craccivora, foliar, 72 h, 10 ppm, 3 d): 47.1% | mortality at 40 ppm (Aphis craccivora; Aphis craccivora, foliar, 72 h, 40 ppm, 3 d, read-out: Mortality (%, 3 d) 40 ppm): 65.2%

melting point: 133.1 to 135.5 °C
Structure (SMILES): N#Cc1ccc(C(=O)N(CC2CC2)c2cccc(C(=O)Nc3c(Br)cc(C(C(F)(F)F)C(F)(F)F)cc3OC(F)F)c2F)cc1 [Compound 26, N-(2-bromo-6-(difluoromethoxy)-4-(1,1,1,3,3,3-hexafluoropropan-2-yl)phenyl)-3-(4-cyano-N-(cyclopropylmethyl)benzamido)-2-fluorobenzamide]

Structure (SMILES): O=C(Nc1c(Br)cc(C(F)(C(F)(F)F)C(F)(F)F)cc1OC(F)F)c1cccc(N(CC2CC2)C(=O)c2ccc(F)cc2)c1F [Compound 31, N-(2-bromo-6-(difluoromethoxy)-4-(perfluoropropan-2-yl)phenyl)-3-(N-(cyclopropylmethyl)-4-fluorobenzamido)-2-fluorobenzamide]
mortality at 0.04 ppm (Mythimna separata): ≥ 90% | mortality at 0.01 ppm (Mythimna separata; [7]): 13.3% | mortality at 0.01 ppm (Mythimna separata; [8]): 63.3% | mortality at 0.01 ppm (Mythimna separata; [9]): 70% | mortality at 0.4 ppm (Spodoptera litura): ≥ 90% | mortality at 1 ppm (Chilo suppressalis; [4]): ≥ 90% | mortality at 0.5 ppm (Chilo suppressalis; 72 h, 3 d): 83.3% | mortality at 1 ppm (Chilo suppressalis; [5]): 100% | mortality at 2 ppm (Chilo suppressalis; [6]): 100% | mortality at 40 ppm (Aphis craccivora; [10]): ≥ 90% | mortality at 0.1 ppm (Spodoptera frugiperda; [1]): 100% | mortality at 0.1 ppm (Spodoptera frugiperda; [2]): 100% | mortality at 0.1 ppm (Spodoptera frugiperda; [3]): 100% | mortality at 1 ppm (Spodoptera frugiperda): ≥ 90%

Structure (SMILES): CC(C1CC1)N(C(=O)c1ccnc(Cl)c1)c1cccc(C(=O)Nc2c(Br)cc(C(F)(C(F)(F)F)C(F)(F)F)cc2C(F)(F)F)c1F (stereo not drawn) [Compound 124, N-(3-((2-bromo-4-(perfluoropropan-2-yl)-6-(trifluoromethyl)phenyl)carbamoyl)-2-fluorophenyl)-2-chloro-N-(1-cyclopropylethyl)isonicotinamide]
mortality at 2 ppm (Chilo suppressalis; [4]): ≥ 90%

Structure (SMILES): O=C(Nc1c(Br)cc(C(F)(C(F)(F)F)C(F)(F)F)cc1OC(F)F)c1cccc(N(CC2CC2)C(=O)c2ccc(F)nc2)c1F [Compound 118, N-(3-((2-bromo-6-(difluoromethoxy)-4-(perfluoropropan-2-yl)phenyl)carbamoyl)-2-fluorophenyl)-N-(cyclopropylmethyl)-6-fluoronicotinamide]
mortality at 0.04 ppm (Mythimna separata): ≥ 90% | mortality at 0.4 ppm (Spodoptera litura): ≥ 90% | mortality at 0.04 ppm (Spodoptera litura): 66.7% | mortality at 0.1 ppm (Spodoptera litura): 95.8% | mortality at 1 ppm (Chilo suppressalis; [4]): ≥ 90% | mortality at 40 ppm (Aphis craccivora; [10]): ≥ 90% | mortality at 0.1 ppm (Spodoptera frugiperda; [1]): 29.2% | mortality at 0.1 ppm (Spodoptera frugiperda; [2]): 66.7% | mortality at 0.1 ppm (Spodoptera frugiperda; [3]): 91.7% | mortality at 1 ppm (Spodoptera frugiperda): ≥ 90%
